# Source: patent US12077503B2, “Substituted cyclic amides and their use as herbicides” (FMC CORPORATION, priority 2015, dated 2024)
# Tests used:
# Assay type in all cases: in vivo
# [1] = tested on: giant foxtail (Setaria faberii); assay: Test A postemergence; details: Setaria faberi, post-emergence, 240 h, read-out: Foxtail, Giant plant response rating (0 to 100 scale)
# In short: (§1)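 In a loam soil and sand blend, planted seeds got a preemergence directed soil spray, and young plants at the one- to two-leaf stage, 2–10 cm high, got a postemergence application; ~10 d greenhouse hold; injury rated visually, 0 = none, 100 = complete control.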
# [2] = tested on: barnyardgrass (Echinochloa crus-galli); assay: Test A postemergence; details: Echinochloa crus-galli, post-emergence, 240 h, read-out: Barnyardgrass plant response rating (0 to 100 scale)
# In short: as §1
# [3] = tested on: ragweed (common ragweed, Ambrosia elatior); assay: Test A postemergence; details: Ambrosia artemisiifolia, post-emergence, 240 h, read-out: Ragweed plant response rating (0 to 100 scale)
# In short: as §1
# corn (Zea mays) = assay: Test A postemergence; details: Zea mays, post-emergence, 240 h, read-out: Corn plant response rating (0 to 100 scale)
# In short: as §1
# [4] = tested on: ryegrass, Italian (Italian ryegrass, Lolium multiflorum); assay: Test A postemergence; details: Lolium multiflorum, post-emergence, 240 h, read-out: Ryegrass, Italian plant response rating (0 to 100 scale)
# In short: as §1
# [5] = tested on: blackgrass (Alopecurus myosuroides); assay: Test A postemergence; details: Alopecurus myosuroides, post-emergence, 240 h, read-out: Blackgrass plant response rating (0 to 100 scale)
# In short: as §1
# [6] = tested on: pigweed (Amaranthus retroflexus); assay: Test A postemergence; details: Amaranthus retroflexus, post-emergence, 240 h, read-out: Pigweed plant response rating (0 to 100 scale)
# In short: as §1
# Kochia (Kochia scoparia) [7] = assay: Test A postemergence; details: Bassia scoparia, post-emergence, 240 h, read-out: Kochia plant response rating (0 to 100 scale)
# In short: as §1
# [8] = tested on: wheat (Triticum aestivum); assay: Test A postemergence; details: Triticum aestivum, post-emergence, 240 h, Postemergence, 31 g ai/ha; 0 is no effect, 100 is complete control; read-out: Wheat plant response rating (0 to 100 scale)
# In short: as §1
# [9] = tested on: Galium (catchweed bedstraw, Galium aparine); assay: Test A postemergence; details: Galium, post-emergence, 240 h, read-out: Galium plant response rating (0 to 100 scale)
# In short: as §1
# [10] = tested on: giant foxtail (Setaria faberii); assay: Test A preemergence; details: Setaria faberi, pre-emergence, 240 h, 0 to 100 scale where 0 is no effect and 100 is complete control, read-out: Foxtail, Giant plant response rating
# In short: as §1
# [11] = tested on: barnyardgrass (Echinochloa crus-galli); assay: Test A preemergence; details: Echinochloa crus-galli, pre-emergence, 240 h, 0 to 100 scale where 0 is no effect and 100 is complete control, read-out: Barnyardgrass plant response rating
# In short: as §1
# [12] = tested on: ragweed (common ragweed, Ambrosia elatior); assay: Test A preemergence; details: Ambrosia artemisiifolia, pre-emergence, 240 h, 0 to 100 scale where 0 is no effect and 100 is complete control, read-out: Ragweed plant response rating
# In short: as §1
# [13] = tested on: ryegrass, Italian (Italian ryegrass, Lolium multiflorum); assay: Test A preemergence; details: Lolium multiflorum, pre-emergence, 240 h, 0 to 100 scale where 0 is no effect and 100 is complete control, read-out: Ryegrass, Italian plant response rating
# In short: as §1
# [14] = tested on: pigweed (Amaranthus retroflexus); assay: Test A preemergence; details: Amaranthus retroflexus, pre-emergence, 240 h, 0 to 100 scale where 0 is no effect and 100 is complete control, read-out: Pigweed plant response rating
# Kochia (Kochia scoparia) [15] = assay: Test A preemergence; details: Bassia scoparia, pre-emergence, 240 h, 0 to 100 scale where 0 is no effect and 100 is complete control, read-out: Kochia plant response rating
# In short: as §1
# [16] = tested on: ducksalad (Heteranthera limosa); assay: Test B flooded paddy test; details: Heteranthera limosa, 250 g ai/ha, Flood; 0 to 100 scale where 0 is no effect and 100 is complete control; read-out: Ducksalad plant response rating
# In short: (§2)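 Greenhouse paddy pots with 2-leaf stage plants received compound by direct addition to floodwater 3 cm deep, kept at that level. Scored visually at 13–15 d versus controls (0 no effect; 100 complete control).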
# [17] = tested on: barnyardgrass (Echinochloa crus-galli); assay: Test B flooded paddy test; details: Echinochloa crus-galli, 250 g ai/ha, Flood; 0 to 100 scale where 0 is no effect and 100 is complete control; read-out: Barnyardgrass plant response rating
# In short: as §2
# [18] = tested on: sedge, umbrella (small-flower umbrella sedge, Cyperus difformis); assay: Test B flooded paddy test; details: Cyperus difformis, 250 g ai/ha, Flood; 0 to 100 scale where 0 is no effect and 100 is complete control; read-out: Sedge, Umbrella plant response rating
# In short: as §2
# rice (Oryra sativa) = assay: Test B flooded paddy test; details: Oryza sativa, 250 g ai/ha, Flood; 0 to 100 scale where 0 is no effect and 100 is complete control; read-out: Rice plant response rating
# In short: as §2
# [19] = 125 g ai/ha, postemergence, visual injury vs untreated controls after approx. 10 d, 0 = no effect, 100 = complete control
# [20] = Postemergence, 31 g ai/ha, 0 is no effect, 100 is complete control
# [21] = 125 g ai/ha, preemergence, visual injury rating, approximately 10 d
smiles,measurement,setting,value
Cn1ccc2ccc([C@H]3CNC(=O)[C@@H]3C(=O)Nc3cccc(F)c3F)cc21 [Compound 1263],pest or weed control at 125 g/ha,[1]; [19],0%
same,pest or weed control at 31 g/ha,[1]; [20],0%
same,pest or weed control at 125 g/ha,[2]; [19],0%
same,pest or weed control at 31 g/ha,[2]; [20],0%
same,pest or weed control at 125 g/ha,[3]; [19],0%
same,pest or weed control at 31 g/ha,[3]; [20],0%
same,plant injury at 125 g/ha,corn (Zea mays); [19],0%
same,plant injury at 31 g/ha,corn (Zea mays); [20],0%
same,pest or weed control at 125 g/ha,[4]; [19],0%
same,pest or weed control at 31 g/ha,[4]; [20],0%
same,pest or weed control at 125 g/ha,[5]; [19],0%
same,pest or weed control at 31 g/ha,[5]; [20],0%
same,pest or weed control at 125 g/ha,[6]; [19],0%
same,pest or weed control at 31 g/ha,[6]; [20],0%
same,pest or weed control at 125 g/ha,Kochia (Kochia scoparia) [7]; [19],0%
same,pest or weed control at 31 g/ha,Kochia (Kochia scoparia) [7]; [20],0%
same,plant injury at 31 g/ha,[8],0%
same,pest or weed control at 125 g/ha,[9]; [19],0%
same,pest or weed control at 31 g/ha,[9]; [20],0%
same,pest or weed control at 31 g/ha,"[10]; 31 g ai/ha, Preemergence",0%
same,pest or weed control at 125 g/ha,[10]; [21],0%
same,pest or weed control at 31 g/ha,"[11]; 31 g ai/ha, Preemergence",0%
same,pest or weed control at 125 g/ha,[11]; [21],0%
same,pest or weed control at 31 g/ha,"[12]; 31 g ai/ha, Preemergence",0%
same,pest or weed control at 125 g/ha,[12]; [21],0%
same,pest or weed control at 31 g/ha,"[13]; 31 g ai/ha, Preemergence",0%
same,pest or weed control at 125 g/ha,[13]; [21],0%
same,pest or weed control at 31 g/ha,"[14]; 31 g ai/ha, Preemergence",0%
same,pest or weed control at 125 g/ha,[14]; [21],0%
same,pest or weed control at 31 g/ha,"Kochia (Kochia scoparia) [15]; 31 g ai/ha, Preemergence",0%
same,pest or weed control at 125 g/ha,Kochia (Kochia scoparia) [15]; [21],0%
same,pest or weed control at 250 g/ha,[16],30%
same,pest or weed control at 250 g/ha,[17],0%
same,pest or weed control at 250 g/ha,[18],0%
same,pest or weed control at 250 g/ha,rice (Oryra sativa),0%
